We go through eight compounds from article PMC9641054, “Antimicrobial activity of cationic antimicrobial peptides against stationary phase bacteria” (Frontiers in Microbiology, 2022).

In brackets after ≈: the same amount, converted by molar mass. No end group written: not given here.

Holding throughout (type): cell-based
Experiment [1] concerns Staphylococcus aureus SH1000. Kind of experiment: Killing experiment at 10x MIC, fast-growing (exponential) versus stationary phase bacteria in spent medium. As to conditions: for Killing fold-change 4 h (median) / Killing fold-change 24 h: S. aureus SH1000, exponentially growing versus stationary phase cultures, 10x MIC, ~2 × 10^6 CFU/ml, 37°C, five independent cultures; for Killing of stationary phase bacteria at 24 h (in words) / Killing of stationary phase bacteria at 4 h (in words): stationary phase in spent medium. Here is the method: (§1) For exponentially growing bacteria, five independent cultures per treatment were diluted 1:100 from a 16-h overnight culture (by adding 100 μl to 10 ml of MHB medium in 50 ml Falcon tubes). Then, the bacteria were grown for 2 h for E. coli and 2.5 h for S. aureus, to reach approximately 2 × 10^8 CFU/ml. The cultures were then diluted 1/100 in fresh medium to reach approximately 2 × 10^6 CFU/ml. […] Volumes of 100 μl-sample were extracted at 4 and 24 h. The aliquots were diluted and plated to determine cell viability. Non-treated cells were used as a control. All incubations took place at 37°C with shaking.
(§2) In order to maintain bacteria in their non-dividing state, we generated a medium to carry out the killing assays. From the supernatant of 500 ml of 48-h culture from each bacterium, the cells were pelleted at 4000 ×g for 30 min. The pH of each culture was adjusted to match the original pH of 7.2. To remove additional cell debris, flagella rest and outer membrane vesicles that could potentially interfere with the activity of AMPs ([Manning and Kuehn, 2011]), the supernatants were ultracentrifuged at 100000 ×g during 16 h at + 4°C. Thereafter, 250 ml of the supernatant from each flask was carefully recovered, without perturbing the pellet, and aseptically filtrated using 0.22 μm syringe filters and 40 ml were transferred to sterile 50 ml-falcon tubes, that were stored at −20°C until use. We refer to this medium as spent medium.
(§3) For stationary phase bacteria, five independent cultures per treatment were used. Bacteria from 48-h cultures containing approximately 3 × 10^9 CFU/ml for E. coli and 2 × 10^9 CFU/ml for S. aureus were diluted in spent medium (see preparation above) to a final cell density of 2×10^6 CFU/ml. Then, the bacteria were treated identically to the fast-growing bacteria killing experiment described above.
(§4) Statistical testing and plots were done in R version 3.3.2 ([R Core Team, 2017]), using Rstudio version 1.0.143 ([R Development Core Team, 2015]). To compare killing rates between bacteria growing in exponential and stationary phase for each antimicrobial after 4 and 24 h of exposure, a Welch’s t-test was used. Values below the detection limit (zero colony counts) were imputed for statistical purposes assigning a value of 1.

The subject of experiment [2] is Escherichia coli K12. The experiment is described as above. The conditions noted are these: for Killing fold-change 4 h (median) / Killing fold-change 24 h: E. coli K12, exponentially growing versus stationary phase cultures, 10x MIC, ~2 × 10^6 CFU/ml, 37°C, five independent cultures; for Killing of stationary phase bacteria at 24 h (in words) / Killing of stationary phase bacteria at 4 h (in words): stationary phase in spent medium. The method, then: as §1, §2, §3, §4

Experiment [3] relates to Staphylococcus aureus SH1000. In words: microbe, parasite or virus in culture. As to conditions: for MIC: Staphylococcus aureus, SH1000, read-out: MIC S. aureus SH1000. Here is the method: (§5) The Escherichia coli K12 from Yale University Microbial Stock Center and Staphylococcus aureus SH1000 ([Horsburgh et al., 2002]) were used for all experiments. All cultures related to antimicrobial tests and experiments were carried out in Mueller-Hinton I broth (Sigma) devoid of cations. Both strains were routinely cultured in Lysogeny Broth (LB medium).
(§6) The minimal inhibitory concentration for each antimicrobial were determined according to CLSI recommendations by the microdilution method ([CLSI, 2018]) with minor modifications for antimicrobial peptides ([Giacometti et al., 2000]). For comparison, we kept these modifications also for antibiotics. Inoculum size that was adjusted to approximately 1 × 10^6 CFU/ml from a 2-h mid-exponential phase obtained by diluting 100 μl of overnight cultures in 10 ml of fresh medium in 50 ml Falcon tubes. The MIC was defined as the minimal antimicrobial concentration that inhibited growth, after 24 h of incubation in liquid MHB medium at 37°C. Polypropylene non-binding plates (96 wells, Th. Geyer, Germany) were used for all experiments.

For experiment [4], the system named is Escherichia coli K12. Kind of experiment: microbe, parasite or virus in culture. The conditions noted are these: for MIC: Escherichia coli, K12, read-out: MIC E. coli K12. The method, then: as §5, §6
[5] abbreviates: microdilution, inoculum ~1 × 10^6 CFU/ml mid-exponential phase, MHB devoid of cations, 24 h, 37°C, polypropylene non-binding plates.

As to `CNC(C)C1CCC(N)C(OC2C(N)CC(N)C(OC3OCC(C)(O)C(NC)C3O)C2O)O1` (centres unmarked) [Gentamicin], the entries for the “Killing fold-change 4 h (median)” value (in experiment [1]; with Escherichia coli K12 [2]) were 8508.47 and 10380.62, respectively. Further, the “Killing fold-change 24 h” value in experiment [1] is given as 2,890,000; with Escherichia coli K12 [2], 317,000. For the same compound, the “Killing of stationary phase bacteria at 24 h (in words)” value (“Killing … at 24 h (in words)” below) is listed as “reduced microbial count for both models with a significantly lower efficacy than killing fast-replicating cultures” in experiment [1] (S. aureus, 10 × MIC) and “reduced microbial count for both models with a significantly lower efficacy than killing fast-replicating cultures” with Escherichia coli K12 [2] (E. coli, 10 × MIC). Also, the MIC in experiment [3] (setting [5]) turned out to be 4 µg/mL (≈ 8.38 µM); in the experiment on Escherichia coli K12 [4] (setting [5]), 1 µg/mL (≈ 2.09 µM).

Consider “GIGKFLKKAKKFGKAFVKILKK-NH2 (C-terminus assumed) [Pexiganan]”, for which the “Killing fold-change 4 h (median)” value in experiment [1] was 1.14; with Escherichia coli K12 [2], 2.53. Besides, the “Killing fold-change 24 h” value (in experiment [1]; in the experiment on Escherichia coli K12 [2]) was 1 in each case. Further, the “Killing of stationary phase bacteria at 4 h (in words)” value (from here on “Killing … at 4 h (in words)”) in experiment [1] (S. aureus, 10 × MIC) is on record as “some delay in killing”; in the experiment on Escherichia coli K12 [2] (E. coli, 10 × MIC), “some delay in killing”. Also, in experiment [3] (SH1000, 24 h), the “MIC S. aureus SH1000” value is 8 µg/mL. In addition, in the experiment with Escherichia coli K12 [4] (K12, 24 h), the “MIC E. coli K12” value is 4 µg/mL.

For “KWKLFKKIEKVGQNIRDGIIKAGPAVAVVGQATQIAK-NH2 (C-terminus assumed) [Cecropin A]”, the results for the “Killing fold-change 4 h (median)” value (in experiment [1]; with Escherichia coli K12 [2]) were 1.30 and 1.21, respectively. Besides, the “Killing fold-change 24 h” value in experiment [1] came out at 0.22; with Escherichia coli K12 [2], 27. Further, the “Killing … at 4 h (in words)” value in experiment [1] (S. aureus, 10 × MIC) is on record as “some delay in killing”; with Escherichia coli K12 [2] (E. coli, 10 × MIC), “some delay in killing”.

On to `O=C(O)c1cn(C2CC2)c2cc(N3CCNCC3)c(F)cc2c1=O` [Ciprofloxacin], for which the “Killing … at 24 h (in words)” value was “reduced microbial count for both models with a significantly lower efficacy than killing fast-replicating cultures” in experiment [1] (S. aureus, 10 × MIC) and “reduced microbial count for both models with a significantly lower efficacy than killing fast-replicating cultures” with Escherichia coli K12 [2] (E. coli, 10 × MIC).

`CC1(C)S[C@@H]2[C@H](NC(=O)[C@H](N)c3ccccc3)C(=O)N2[C@H]1C(=O)O` [Ampicillin]: the figures for the “Killing fold-change 4 h (median)” value (in experiment [1]; in the experiment on Escherichia coli K12 [2]) were 13087.25 and 595.18, respectively. Moreover, the “Killing fold-change 24 h” value is listed as 4,470,000 in experiment [1] and 4,150,000 in the experiment with Escherichia coli K12 [2]. Further, the “Killing … at 4 h (in words)” value is reported as “did not kill” in experiment [1] (S. aureus, 10 × MIC) and “did not kill” in the experiment on Escherichia coli K12 [2] (E. coli, 10 × MIC). Besides, the “Killing … at 24 h (in words)” value in experiment [1] (S. aureus, 10 × MIC) is listed as “poor killing capacity”; in the experiment on Escherichia coli K12 [2] (E. coli, 10 × MIC) it was “poor killing capacity”. Moreover, the results for the MIC (in experiment [3] (setting [5]); with Escherichia coli K12 [4] (setting [5])) were 4 µg/mL (≈ 11.4 µM) and 2 µg/mL (≈ 5.72 µM), respectively.

Turning to `CC[C@H](C)[C@H](NC(=O)[C@H](CCCCN)NC(=O)[C@H](CCC(=O)O)NC(=O)[C@H](CCCCN)NC(=O)[C@H](CO)NC(=O)[C@H](CCCCN)NC(=O)[C@H](CCCNC(=N)N)NC(=O)[C@H](Cc1ccccc1)NC(=O)[C@H](Cc1ccccc1)NC(=O)[C@H](CC(=O)O)NC(=O)CNC(=O)[C@H](CC(C)C)NC(=O)[C@@H](N)CC(C)C)C(=O)NCC(=O)N[C@@H](CCCCN)C(=O)N[C@@H](CCC(=O)O)C(=O)N[C@@H](Cc1ccccc1)C(=O)N[C@@H](CCCCN)C(=O)N[C@@H](CCCNC(=N)N)C(=O)N[C@H](C(=O)N[C@H](C(=O)N[C@@H](CCC(N)=O)C(=O)N[C@@H](CCCNC(=N)N)C(=O)N[C@H](C(=O)N[C@@H](CCCCN)C(=O)N[C@@H](CC(=O)O)C(=O)N[C@@H](Cc1ccccc1)C(=O)N[C@@H](CC(C)C)C(=O)N[C@@H](CCCNC(=N)N)C(=O)N[C@@H](CC(N)=O)C(=O)N[C@@H](CC(C)C)C(=O)N[C@H](C(=O)N1CCC[C@H]1C(=O)N[C@@H](CCCNC(=N)N)C(=O)N[C@H](C(=O)N[C@@H](CCC(=O)O)C(=O)N[C@@H](CO)C(=O)O)[C@@H](C)O)C(C)C)[C@@H](C)CC)C(C)C)[C@@H](C)CC` [LL-37], the “Killing fold-change 4 h (median)” value in experiment [1] was 0.66; in the experiment with Escherichia coli K12 [2], 3.71. In addition, the “Killing fold-change 24 h” value (in experiment [1]; with Escherichia coli K12 [2]) was 1 in each case. Further, the “Killing … at 4 h (in words)” value is “some delay in killing” in experiment [1] (S. aureus, 10 × MIC) and “some delay in killing” in the experiment on Escherichia coli K12 [2] (E. coli, 10 × MIC). Besides, in experiment [3] (setting [5]), the “MIC S. aureus SH1000” value was determined as 8 µg/mL (≈ 1.78 µM). Moreover, the “MIC E. coli K12” value against Escherichia coli K12 [4] (setting [5]) came out at 4 µg/mL (≈ 0.89 µM).

Consider `CC[C@H](C)[C@H](N)C(=O)N[C@@H](CC(C)C)C(=O)N1CCC[C@H]1C(=O)N[C@@H](Cc1c[nH]c2ccccc12)C(=O)N[C@@H](CCCCN)C(=O)N[C@@H](Cc1c[nH]c2ccccc12)C(=O)N1CCC[C@H]1C(=O)N[C@@H](Cc1c[nH]c2ccccc12)C(=O)N[C@@H](Cc1c[nH]c2ccccc12)C(=O)N1CCC[C@H]1C(=O)N[C@@H](Cc1c[nH]c2ccccc12)C(=O)N[C@@H](CCCNC(=N)N)C(=O)N[C@@H](CCCNC(=N)N)C(N)=O` [Indolicidin], for which the “Killing fold-change 24 h” value (in experiment [1]; with Escherichia coli K12 [2]) was 1 each time. Moreover, the “Killing of bacterial cultures (in words)” value is “completely killing” in experiment [1] (S. aureus, 10 × MIC, fast and slow-replicating bacteria, both time-points 4 and 24 h); “completely killing” with Escherichia coli K12 [2] (E. coli, 10 × MIC, fast and slow-replicating bacteria, both time-points 4 and 24 h). In experiment [3] (setting [5]), the “MIC S. aureus SH1000” value was determined as 8 µg/mL (≈ 4.2 µM). Also, in the experiment with Escherichia coli K12 [4] (setting [5]), the “MIC E. coli K12” value turned out to be 16 µg/mL (≈ 8.39 µM).

In the case of `CC[C@H](C)[C@H](NC(=O)CN)C(=O)NCC(=O)N[C@@H](C)C(=O)N[C@H](C(=O)N[C@@H](CC(C)C)C(=O)N[C@@H](CCCCN)C(=O)N[C@H](C(=O)N[C@@H](CC(C)C)C(=O)N[C@H](C(=O)N[C@H](C(=O)NCC(=O)N[C@@H](CC(C)C)C(=O)N1CCC[C@H]1C(=O)N[C@@H](C)C(=O)N[C@@H](CC(C)C)C(=O)N[C@H](C(=O)N[C@@H](CO)C(=O)N[C@@H](Cc1c[nH]c2ccccc12)C(=O)N[C@H](C(=O)N[C@@H](CCCCN)C(=O)N[C@@H](CCCNC(=N)N)C(=O)N[C@@H](CCCCN)C(=O)N[C@@H](CCCNC(=N)N)C(=O)N[C@@H](CCC(N)=O)C(=O)N[C@@H](CCC(N)=O)C(N)=O)[C@@H](C)CC)[C@@H](C)CC)[C@@H](C)O)[C@@H](C)O)C(C)C)C(C)C` [Melittin], in experiment [1], the “Killing fold-change 24 h” value stood at 17. Also, the “Killing … at 4 h (in words)” value is “some delay in killing” in experiment [1] (S. aureus, 10 × MIC) and “some delay in killing” in the experiment with Escherichia coli K12 [2] (E. coli, 10 × MIC). In addition, the “MIC S. aureus SH1000” value in experiment [3] (setting [5]) was 2 µg/mL (≈ 0.703 µM). Besides, the “MIC E. coli K12” value in the experiment with Escherichia coli K12 [4] (setting [5]) was 2 µg/mL (≈ 0.703 µM).
